Tests used:
[1] = Cytotoxicity against mouse L929 cells assessed as cell viability upto 50 uM measured after 24 hrs by MTT assay relative to control; assay type: toxicity, cell-based; conditions: read-out: Activity
Leishmania amazonensis [2] = experiment: Antileishmanial activity against Leishmania amazonensis promastigotes assessed as inhibition of parasite viability at 50 uM measured after 24 hrs by resazurin based colorimetric assay relative to control; assay type: functional
Leishmania amazonensis [3] = experiment: Antileishmanial activity against Leishmania amazonensis promastigotes assessed as inhibition of parasite viability measured after 24 hrs by resazurin based colorimetric assay; assay type: functional, organism-based
[4] = Cytotoxicity against mouse L929 cells assessed as cell viability at 100 uM measured after 24 hrs by MTT assay relative to control; assay type: toxicity, cell-based; conditions: read-out: Activity

COc1cc(OC)c(OC)cc1/C=C/C(=O)c1ccc(Br)cc1
viability at 24 h, 50 µM [1]: > 80% | inhibition at 50 µM (Leishmania amazonensis [2]): 98.2% | IC50 (Leishmania amazonensis [3]): 6.33 µM | viability at 24 h, 100 µM [4]: > 60%

CN(C)c1ccc(/C=C/C(=O)c2cccc(Br)c2)cc1
viability at 24 h, 50 µM [1]: > 80% | inhibition at 50 µM (Leishmania amazonensis [2]): 98.7% | IC50 (Leishmania amazonensis [3]): 10.8 µM | viability at 24 h, 100 µM [4]: > 70%

O=C(/C=C/c1cccs1)c1ccc(Br)cc1
inhibition at 50 µM (Leishmania amazonensis [2]): 93.6%

COc1ccc(/C=C/C(=O)c2cccc(Br)c2)cc1
inhibition at 50 µM (Leishmania amazonensis [2]): 93%

COc1ccc(/C=C/C(=O)c2ccc(Br)cc2)cc1
inhibition at 50 µM (Leishmania amazonensis [2]): 80.7%

O=C(/C=C/c1ccccc1)c1cccc(Br)c1
viability at 24 h, 50 µM [1]: > 80% | inhibition at 50 µM (Leishmania amazonensis [2]): 99.8% | IC50 (Leishmania amazonensis [3]): 13.8 µM | viability at 24 h, 100 µM [4]: > 60%

CN(C)c1ccc(/C=C/C(=O)c2ccc(Br)cc2)cc1
inhibition at 50 µM (Leishmania amazonensis [2]): 91.2%

CSc1ccc(/C=C/C(=O)c2ccc(Br)cc2)cc1
inhibition at 50 µM (Leishmania amazonensis [2]): 39.3%

Cc1ccc(/C=C/C(=O)c2ccc(Br)cc2)cc1
inhibition at 50 µM (Leishmania amazonensis [2]): 57%

O=C(/C=C/c1ccc2c(c1)OCO2)c1ccc(Br)cc1
inhibition at 50 µM (Leishmania amazonensis [2]): 87.5%

O=C(/C=C/c1cccc2ccccc12)c1ccc(Br)cc1
inhibition at 50 µM (Leishmania amazonensis [2]): 83.9%

O=C(/C=C/c1ccc(OCc2ccccc2)cc1)c1cccc(Br)c1
inhibition at 50 µM (Leishmania amazonensis [2]): 95%

O=C(/C=C/c1ccccc1F)c1ccc(Br)cc1
viability at 24 h, 50 µM [1]: > 80% | inhibition at 50 µM (Leishmania amazonensis [2]): 99.4% | IC50 (Leishmania amazonensis [3]): 23.9 µM | viability at 24 h, 100 µM [4]: > 60%

Cc1ccc(/C=C/C(=O)c2cccc(Br)c2)cc1
inhibition at 50 µM (Leishmania amazonensis [2]): 94.8%

O=C(/C=C/c1ccccc1F)c1cccc(Br)c1
inhibition at 50 µM (Leishmania amazonensis [2]): 91.7%

O=C(/C=C/C=C/c1ccccc1)c1ccc(Br)cc1
inhibition at 50 µM (Leishmania amazonensis [2]): 33.8%

O=C(/C=C/c1cccs1)c1cccc(Br)c1
inhibition at 50 µM (Leishmania amazonensis [2]): 86.7%

O=C(/C=C/C=C/c1ccccc1)c1cccc(Br)c1
inhibition at 50 µM (Leishmania amazonensis [2]): 90.8%

O=C(/C=C/c1cccc2ccccc12)c1cccc(Br)c1
inhibition at 50 µM (Leishmania amazonensis [2]): 90.8%

O=C(/C=C/c1ccc(OCc2ccccc2)cc1)c1ccc(Br)cc1
inhibition at 50 µM (Leishmania amazonensis [2]): 24.2%

CSc1ccc(/C=C/C(=O)c2cccc(Br)c2)cc1
viability at 24 h, 50 µM [1]: > 80% | inhibition at 50 µM (Leishmania amazonensis [2]): 97.3% | IC50 (Leishmania amazonensis [3]): 11.4 µM | viability at 24 h, 100 µM [4]: > 70%

C[C@@H]1[C@H](O)[C@@H](C)/C=C/C=C/C=C/C=C/C=C/C=C/C=C/[C@H](O[C@@H]2O[C@H](C)[C@@H](O)[C@H](N)[C@@H]2O)C[C@@H]2O[C@](O)(C[C@@H](O)C[C@@H](O)[C@H](O)CC[C@@H](O)C[C@@H](O)CC(=O)O[C@H]1C)C[C@H](O)[C@H]2C(=O)O [AMPHOTERICIN B]
IC50 (Leishmania amazonensis [3]): 0.115 µM

O=C(/C=C/c1ccccc1)c1ccccc1 [CHALCONE]
inhibition at 50 µM (Leishmania amazonensis [2]): 90.1% | IC50 (Leishmania amazonensis [3]): 10.6 µM
